Reference: patent publication EP0641797A1, “Cephem derivatives and antimicrobial agents containing the same” (KATAYAMA SEIYAKUSYO CO. Ltd., priority 1993, dated 1995)
In brackets after ≈: the same amount, converted by molar mass. Where two headings read alike, the source gives them in different places.

Legend:
Assay in all cases: MIC on standard strains, standard method of Japan Society of Chemotherapy
Format in all cases: cell-based
[1] = tested on: P. aeruginosa AKR17; conditions: Pseudomonas aeruginosa
Procedure: (§1) Antimicrobial activity of the compounds of the present invention were measured using CTM (cefotiam) and FMOX (flomoxef) as control drugs in accordance with the standard method of Japan Society of Chemotherapy. Of the 25 standard strains used in this test, Staphylococcus aureus 167 and Staphylococcus aureus 195 belong to MRSA.
(§2) In these tables, drugs tested are shown by the corresponding examples in which they were synthesized.

[2] = tested on: S. epidemidis IAM 1296
Procedure: as §1, §2

[3] = tested on: E. coli CSH2(RK1); conditions: Escherichia coli
Procedure: as §1, §2

[4] = tested on: C. freundii ATCC 8090
Procedure: as §1, §2

[5] = tested on: B. subtilis ATCC 6633
Procedure: as §1, §2

[6] = tested on: S. aureus 209p JC-1; conditions: Staphylococcus aureus, 209P, read-out: MIC
Procedure: as §1, §2

[7] = tested on: E. coli NHIJ JC-2; conditions: Escherichia coli, NHIJJC2
Procedure: as §1, §2

[8] = tested on: E. coli CSH2(RE45); conditions: Escherichia coli
Procedure: as §1, §2

[9] = tested on: P. mirabilis IFO 3849
Procedure: as §1, §2

[10] = tested on: S. aureus 195; conditions: Staphylococcus aureus; S. aureus 195 (MRSA)
Procedure: as §1, §2

[11] = tested on: A. calcoaceticos T59
Procedure: as §1, §2

[12] = tested on: K. pneuminiae No. 42
Procedure: as §1, §2

[13] = tested on: P. cepacia
Procedure: as §1, §2

[14] = tested on: P. vulugaris OX-19
Procedure: as §1, §2

[15] = tested on: S. aureus Smith; conditions: Staphylococcus aureus, read-out: MIC
Procedure: as §1, §2

[16] = tested on: E. cloacae Nek39
Procedure: as §1, §2

[17] = tested on: S. marcescens No. 16-2; conditions: Serratia marcescens, NO.162
Procedure: as §1, §2

[18] = tested on: E. cloacae ATCC 13407
Procedure: as §1, §2

[19] = tested on: S. aureus 167; conditions: Staphylococcus aureus; S. aureus 167 (MRSA)
Procedure: as §1, §2

[20] = tested on: K. pneuminiae IFO 3317
Procedure: as §1, §2

[21] = tested on: M. morganii IFO 3848; conditions: Morganella morganii, IFO3848
Procedure: as §1, §2

[22] = tested on: S. marcescens IAM 1184; conditions: Serratia marcescens, IAM1184, S. marcescens IAM 1184; read-out: MIC
Procedure: as §1, §2

[23] = tested on: M. luteus ATCC 9341; conditions: Micrococcus luteus, ATCC9341
Procedure: as §1, §2

[24] = tested on: A. faecalis ATCC 3750; conditions: Alcaligenes faecalis, ATCC3750, A. faecalis ATCC 3750; read-out: MIC
Procedure: as §1, §2

[25] = tested on: P. aeruginosa NCTC 10490; conditions: Pseudomonas aeruginosa, NCTC10490, P. aeruginosa NCTC 10490; read-out: MIC
Procedure: as §1, §2

[26] = Citrobacter freundii, ATCC8090, C. freundii ATCC 8090, read-out: MIC
[27] = Bacillus subtilis, ATCC6633, B. subtilis ATCC 6633, read-out: MIC
[28] = Proteus mirabilis, IFO3849, P. mirabilis IFO 3849, read-out: MIC
[29] = Burkholderia cepacia, read-out: MIC
[30] = Enterobacter cloacae, NEK39, E. cloacae Nek39, read-out: MIC
[31] = Enterobacter cloacae, ATCC13407, E. cloacae ATCC 13407, read-out: MIC

Row | SMILES | MIC [1] [µg/mL] | MIC [2] [µg/mL] | MIC [3] [µg/mL] | MIC [4, 26] [µg/mL] | MIC [5, 27] [µg/mL] | MIC [6] [µg/mL] | MIC [7] [µg/mL] | MIC [8] [µg/mL] | MIC [9, 28] [µg/mL] | MIC [10] [µg/mL] | MIC ([11]; read-out: MIC) [µg/mL] | MIC [12] [µg/mL] | MIC [13, 29] [µg/mL] | MIC [14] [µg/mL] | MIC [15] [µg/mL] | MIC [16, 30] [µg/mL] | MIC [17] [µg/mL] | MIC [18, 31] [µg/mL] | MIC [19] [µg/mL] | MIC [20] [µg/mL] | also measured
1 | Nc1nnc(-c2cc[n+](CC3=C(C(=O)[O-])N4C(=O)[C@@H](NC(=O)/C(=N\O)c5csc(N)n5)[C@H]4SC3)cc2)o1 [Ex. 15, 7β-[2-(2-aminothiazol-4-yl)-2-syn-hydroxyiminoacetamido]-3-[4-(2-amino-1,3,4-oxadiazol-5-yl)pyridinio]methyl-3-cephem-4-carboxylate] | > 100 | 0.1 (≈ 0.184 µM) | 0.78 (≈ 1.44 µM) | 0.2 (≈ 0.368 µM) | 0.39 (≈ 0.718 µM) | 0.39 (≈ 0.718 µM) | 0.2 (≈ 0.368 µM) | 0.39 (≈ 0.718 µM) | 0.2 (≈ 0.368 µM) | 6.25 (≈ 11.5 µM) | 12.5 (≈ 23 µM) | 0.39 (≈ 0.718 µM) | > 100 | 0.2 (≈ 0.368 µM) | 0.39 (≈ 0.718 µM) | 50 (≈ 92 µM) | 100 (≈ 184 µM) | 6.25 (≈ 11.5 µM) | 6.25 (≈ 11.5 µM) | 0.2 (≈ 0.368 µM) | MIC [21]: 0.1 µg/mL (≈ 0.184 µM); MIC [22]: 0.2 µg/mL (≈ 0.368 µM); MIC [23]: 0.05 µg/mL (≈ 0.092 µM); MIC [24]: 1.56 µg/mL (≈ 2.87 µM); MIC [25]: 1.56 µg/mL (≈ 2.87 µM)
2 | CO[C@@]1(NC(=O)CSC(F)F)C(=O)N2C(C(=O)O)=C(CSc3nnnn3CCO)CO[C@@H]21 [FMOX, flomoxef, reference compound] | > 100 | 0.2 (≈ 0.403 µM) | 0.1 (≈ 0.201 µM) | 0.39 (≈ 0.786 µM) | 0.39 (≈ 0.786 µM) | 0.39 (≈ 0.786 µM) | 0.1 (≈ 0.201 µM) | 0.1 (≈ 0.201 µM) | 0.39 (≈ 0.786 µM) | 3.13 (≈ 6.3 µM) | > 100 | 0.1 (≈ 0.201 µM) | 50 (≈ 101 µM) | 0.39 (≈ 0.786 µM) | 0.39 (≈ 0.786 µM) | > 100 | 100 (≈ 201 µM) | 50 (≈ 101 µM) | 50 (≈ 101 µM) | 0.05 (≈ 0.101 µM) | MIC ([4]; C. freundii ATCC 8090): 0.2 µg/mL (≈ 0.403 µM); MIC ([5]; B. subtilis ATCC 6633): 0.2 µg/mL (≈ 0.403 µM); MIC ([9]; P. mirabilis IFO 3849): 0.2 µg/mL (≈ 0.403 µM); MIC [11]: 100 µg/mL (≈ 201 µM); MIC [13]: 100 µg/mL (≈ 201 µM); MIC ([16]; E. cloacae Nek39): 100 µg/mL (≈ 201 µM); MIC ([18]; E. cloacae ATCC 13407): 100 µg/mL (≈ 201 µM); MIC [21]: 0.39 µg/mL (≈ 0.786 µM); MIC [22]: 0.2 µg/mL (≈ 0.403 µM); MIC [23]: 0.1 µg/mL (≈ 0.201 µM); MIC [24]: 0.1 µg/mL (≈ 0.201 µM); MIC [25]: > 100 µg/mL
3 | NC(=O)Nc1ccc[n+](CC2=C(C(=O)[O-])N3C(=O)[C@@H](NC(=O)/C(=N\O)c4nsc(N)n4)[C@H]3SC2)c1 [Ex. 2, 7β-[2-(5-amino-1,2,4-thiadiazol-3-yl)-2-syn-hydroxyiminoacetamido]-3-(3-ureidopyridinio)methyl-3-cephem-4-carboxylate] | > 100 | 0.2 (≈ 0.385 µM) | 1.56 (≈ 3 µM) | 0.78 (≈ 1.5 µM) | 0.39 (≈ 0.751 µM) | 0.39 (≈ 0.751 µM) | 0.78 (≈ 1.5 µM) | 0.78 (≈ 1.5 µM) | 1.56 (≈ 3 µM) | 3.13 (≈ 6.02 µM) | 1.56 (≈ 3 µM) | 0.78 (≈ 1.5 µM) | > 100 | 1.56 (≈ 3 µM) | 0.78 (≈ 1.5 µM) | 100 (≈ 192 µM) | 100 (≈ 192 µM) | 6.25 (≈ 12 µM) | 6.25 (≈ 12 µM) | 0.39 (≈ 0.751 µM) | MIC [21]: 0.78 µg/mL (≈ 1.5 µM); MIC [22]: 0.39 µg/mL (≈ 0.751 µM); MIC [23]: 0.05 µg/mL (≈ 0.0962 µM); MIC [24]: 3.13 µg/mL (≈ 6.02 µM); MIC [25]: 0.78 µg/mL (≈ 1.5 µM)
4 | Nc1nc(/C(=N/O)C(=O)N[C@@H]2C(=O)N3C(C(=O)[O-])=C(C[n+]4ccc(-c5ncon5)cc4)CS[C@H]23)cs1 [Ex. 17, 7β-[2-(2-aminothiazol-4-yl)-2-syn-hydroxyiminoacetamido]-3-[4-(1,2,4-oxadiazol-3-yl)pyridinio]methyl-3-cephem-4-carboxylate] | > 100 | 0.2 (≈ 0.378 µM) | 0.78 (≈ 1.48 µM) | 0.39 (≈ 0.738 µM) | 0.39 (≈ 0.738 µM) | 0.39 (≈ 0.738 µM) | 0.39 (≈ 0.738 µM) | 0.78 (≈ 1.48 µM) | 0.39 (≈ 0.738 µM) | 3.13 (≈ 5.92 µM) | 12.5 (≈ 23.7 µM) | 0.78 (≈ 1.48 µM) | > 100 | 0.39 (≈ 0.738 µM) | 0.78 (≈ 1.48 µM) | 50 (≈ 94.6 µM) | > 100 | 6.25 (≈ 11.8 µM) | 6.25 (≈ 11.8 µM) | 0.39 (≈ 0.738 µM) | MIC [21]: 0.2 µg/mL (≈ 0.378 µM); MIC [22]: 0.39 µg/mL (≈ 0.738 µM); MIC [23]: 0.1 µg/mL (≈ 0.189 µM); MIC [24]: 3.13 µg/mL (≈ 5.92 µM); MIC [25]: 3.13 µg/mL (≈ 5.92 µM)
